Test results published in ChEMBL document CHEMBL1201862, “PubChem BioAssay data set” (2004).
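In this assay, cells in 96-well plates receive the compound at five concentrations for 48 hours. Endpoints are linearly interpolated between the surrounding concentrations. GI50 marks 50% less growth.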 The source made the active and inactive calls. No stated cut-off is given here; in the data, active = GI50 up to about 1.1 µM and inactive = higher.

Experiments:
Test in all cases: NCI-60 cell line screen, 48 h
[1] = tested on: U-251
[2] = tested on: MDA-MB-435
[3] = tested on: NCI/ADR-RES
[4] = tested on: SF-295
[5] = tested on: OVCAR-8
[6] = tested on: SW-620
[7] = tested on: HCT-116
[8] = tested on: CCRF-CEM
[9] = tested on: SN12C
[10] = tested on: HCC 2998
[11] = tested on: A549
[12] = tested on: SNB-75
[13] = tested on: Malme-3M
[14] = tested on: HOP-62
[15] = tested on: SF-539
[16] = tested on: NCI-H460
[17] = tested on: OVCAR-5
[18] = tested on: UO-31
[19] = tested on: SNB-19
[20] = tested on: M14
[21] = tested on: K562
[22] = tested on: DU-145
[23] = tested on: OVCAR-4
[24] = tested on: SK-MEL-28
[25] = tested on: ACHN
[26] = tested on: EKVX
[27] = tested on: SR
[28] = tested on: CAKI-1
[29] = tested on: MDA-N
[30] = tested on: SK-OV-3
[31] = tested on: MDA-MB-231
[32] = tested on: TK-10
[33] = tested on: SF-268
[34] = tested on: PC-3
[35] = tested on: HCT-15
[36] = tested on: RXF 393
[37] = tested on: LOX IMVI
[38] = tested on: T47D
[39] = tested on: HL-60
[40] = tested on: UACC-62
[41] = tested on: BT-549
[42] = tested on: NCI-H522
[43] = tested on: OVCAR-3
[44] = tested on: Hs-578T
[45] = tested on: NCI-H23
[46] = tested on: 786-0
[47] = tested on: MCF7
[48] = tested on: HT-29
[49] = tested on: COLO 205
[50] = tested on: IGROV-1
[51] = tested on: MOLT-4
[52] = tested on: SK-MEL-5
[53] = tested on: SK-MEL-2
[54] = tested on: KM12
[55] = tested on: UACC-257
[56] = tested on: NCI-H226

`C/C=C/C(O)P1(=O)N(Cc2ccccc2)[C@@H]2CCCC[C@H]2N1Cc1ccccc1` (stereo partly specified) was tested, and the GI50 [1] was > 25 µM (inactive), the GI50 [2] was > 25 µM (inactive) and the GI50 [3] was > 25 µM (inactive). For the same molecule, the GI50 [4] was > 25 µM (inactive), the GI50 [5] was > 25 µM (inactive) and the GI50 [6] was > 25 µM (inactive). The GI50 [7] was > 25 µM (inactive), the GI50 [8] was > 25 µM (inactive) and the GI50 [9] was > 25 µM (inactive). The GI50 [10] was > 25 µM (inactive), the GI50 [11] was > 25 µM (inactive) and the GI50 [12] was > 25 µM (inactive). The GI50 [13] was > 25 µM (inactive), the GI50 [14] was > 25 µM (inactive) and the GI50 [15] was > 25 µM (inactive). The GI50 [16] was > 25 µM (inactive), the GI50 [17] was > 25 µM (inactive) and the GI50 [18] was > 25 µM (inactive). For the same molecule, the GI50 [19] was > 25 µM (inactive), the GI50 [20] was > 25 µM (inactive) and the GI50 [21] was > 25 µM (inactive). The GI50 [22] was > 25 µM (inactive), the GI50 [23] was > 25 µM (inactive) and the GI50 [24] was > 25 µM (inactive). The GI50 [25] was > 25 µM (inactive), the GI50 [26] was > 25 µM (inactive) and the GI50 [27] was > 25 µM (inactive). For the same molecule, the GI50 [28] was > 25 µM (inactive), the GI50 [29] was > 25 µM (inactive) and the GI50 [30] was > 25 µM (inactive). For the same molecule, the GI50 [31] was > 25 µM (inactive), the GI50 [32] was > 25 µM (inactive) and the GI50 [33] was > 25 µM (inactive). The GI50 [34] was > 25 µM (inactive), the GI50 [35] was over 25 µM and the GI50 [36] was > 25 µM (inactive). For the same molecule, the GI50 [37] was > 25 µM (inactive), the GI50 [38] was > 25 µM (inactive) and the GI50 [39] was > 25 µM (inactive). For the same molecule, the GI50 [40] was > 25 µM (inactive), the GI50 [41] was > 25 µM (inactive) and the GI50 [42] was > 25 µM (inactive). For the same molecule, the GI50 [43] was > 25 µM (inactive), the GI50 [44] was > 25 µM (inactive) and the GI50 [45] was > 25 µM (inactive). The GI50 [46] was > 25 µM (inactive), the GI50 [47] was > 25 µM (inactive) and the GI50 [48] was > 25 µM (inactive). The GI50 [49] was > 25 µM (inactive), the GI50 [50] was > 25 µM (inactive) and the GI50 [51] was 19.9 µM (inactive). For the same molecule, the GI50 [52] was > 25 µM (inactive), the GI50 [53] was > 25 µM (inactive) and the GI50 [54] was > 25 µM (inactive). The GI50 [55] was > 25 µM (inactive) and the GI50 [56] was > 25 µM (inactive).
